Test results taken from patent publication US20100260673A1, “PHAGE DISPLAY PEPTIDE PROBES FOR IMAGING EARLY RESPONSES TO ANTIANGIOGENIC TREATMENT” (priority 2009, published 2010).
Like-named read-outs stand apart in the source and are kept apart here. Where a SMILES comes first, the peptide text is derived from it. Where no end group is shown, it is not given here. The star is where a group is joined. Propanoyl(2-F) = CC(F)C(=O)*

Legend:
[1] = for metabolic stability in vivo: urine after 1 hr
Procedure: Metabolic Stability of AVP Peptide: Nude mice bearing LS174T tumor xenografts were intravenously injected with 3.7 MBq of ^18F-FP-AVP. Urine samples were collected 1 h after tracer injection and analyzed by HPLC.
Radiochemistry: Semi-preparative reversed-phase high performance liquid chromatography (RPHPLC) using a Vydac protein and peptide column (218TP510; 5 μm, 250×10 mm) was performed on a Dionex 680 chromatography system with a UVD 170U absorbance detector and model 105S single-channel radiation detector (Carroll & Ramsey Associates). The recorded data were processed using Chromeleon version 6.50 software. With a flow rate of 5 ml/min, the mobile phase was changed from 95% solvent A [0.1% trifluoroacetic acid (TFA) in water] and 5% B [0.1% TFA in acetonitrile] (0-2 min) to 35% solvent A and 65% solvent B at 32 min. […] C18 Sep-Pak cartridges (Waters) were pretreated with ethanol and water before use.

[2] = system: LS174T tumor; conditions: mouse, in vivo
Procedure: The 4T1 cells were harvested from the tumor and suspended in sterile PBS at a concentration of 2×10^7 viable cells/mL.
Tumor Growth Study: When palpable tumors (150-200 mm^3) were present in all animals, mice were randomly divided into two groups (n=10/group). Cancer therapy response was evaluated in LS174T human colorectal cancer, 4T1 murine breast cancer and 22B human head-neck cancer models. […] The mouse body weight and tumor volume were measured every 3 days for up to 20 days before euthanasia.
Small Animal PET Imaging: A detailed procedure for positron emission tomography (PET) imaging has been reported earlier (Li et al., (2008) J. Nucl. Med. 49: 453-461). Briefly, PET scans were performed using a microPET R4 rodent model scanner (Siemens Medical Solutions). […] The images were reconstructed by a two-dimensional ordered subsets expectation maximum (OSEM) algorithm with no attenuation or scatter correction. For each microPET scan, regions of interest (ROIs) were drawn over the tumor by using vendor software ASI Pro 5.2.4.0 on decay corrected whole-body coronal images. Assuming a tissue density of 1 g/ml, the ROIs were converted to MBq/g/min using a conversion factor, and then divided by the administered activity to obtain an imaging ROI-derived percent injected dose per gram (% ID/g).

[3] = system: LS174T human colorectal cancer; assay: Tumor growth study; type: in vivo, mice
Procedure: Animal Models: Female athymic nude mice (nu/nu) were obtained from Harlan (Indianapolis, Ind.) at 6-8 weeks of age and were kept under sterile conditions. The LS174T or 22B cells were harvested and suspended in sterile PBS at a concentration of 5×10^7 viable cells/ml. Viable tumor cells (5×10^6) in sterile PBS (100 μL) were injected subcutaneously into the right shoulder. […] Tumor growth was followed by caliper measurements of perpendicular measures of the tumor. The tumor volume was estimated by the formula: tumor volume=a×(b2)/2, where a and b were the tumor length and width respectively in mm.

[4] = system: LS174T human colorectal cancer cells; conditions: 48 h incubation, various concentrations
Procedure: (§1) Toxicity of AVP on Cell Viability by MTT Assay: MTT (3-(4,5-dimethylthiazolyl-2)-2,5-diphenyltetrazolium bromide; ATCC) assays were used to measure cell viability. Three thousand tumor cells or HUVECs were seeded per well in a 96-well plate and allowed to incubate for 24 h. After incubation with various concentrations of peptide AVP for 48 h, 10 μl of MTT reagent was added to each well. Four hours later, when the purple precipitate became visible, the supernatant was discarded, and 100 μl of DMSO was added to each well and the plate was shaken in the dark for 10 min at room temperature. The absorbance at 570 nm was then measured using a microplate reader (Tecan).

[5] = system: 4T1 murine breast cancer cells; conditions: 4T1, 48 h incubation, various concentrations
Procedure: as §1

[6] = system: human umbilical vein endothelial cells (HUVEC); conditions: 48 h incubation, various concentrations
Procedure: as §1

[7] = system: tumor that responds to the anti-angiogenic drug ZD4190 therapy; conditions: ZD4190-treated
Text: Two-dimensional NIR fluorescence images were acquired at various time points after injection using a Maestro in vivo imaging system (CRI, Woburn, Mass.; IRdye800 excitation=735 nm, emission=780 nm long pass).

[8] = system: LS174T tumor; conditions: Bevacizumab-treated mice
[9] = system: 4T1 tumor; conditions: Bevacizumab-treated mice
[10] = system: 22B tumor; conditions: Bevacizumab-treated mice, 4T1 and 22B in the same animal

Molecule: CC(C)C[C@H](NC(=O)C(C)F)C(=O)N[C@@H](CC(C)C)C(=O)N[C@@H](C)C(=O)N[C@@H](CC(=O)O)C(=O)N[C@H](C(=O)N[C@H](C(=O)N[C@@H](Cc1c[nH]cn1)C(=O)N[C@@H](Cc1c[nH]cn1)C(=O)N[C@@H](CCCNC(=N)N)C(=O)N1CCC[C@H]1C(=O)N[C@@H](Cc1c[nH]c2ccccc12)C(=O)N[C@H](C(=O)O)[C@@H](C)O)[C@@H](C)O)[C@@H](C)O (some centres unmarked) [18F-FP-AVP] ({Propanoyl(2-F)}-LLADTTHHRPWT-OH)
- metabolic stability in vivo [1]: good metabolic stability
- metabolic stability in vivo ([1]; listed as 18F-labeled Bevacizumab (AVASTIN™)-responsive peptide): minimal degradation or metabolism
- intact tracer in urine ([1]; urine sample 1 h after i.v. injection, HPLC): about 90%
- microPET tumor uptake, Avastin treated versus control PBS treated tumors [2]: significantly higher uptake

Molecule: Bevacizumab (AVASTIN™): recombinant humanized monoclonal IgG1 antibody that binds human VEGF
- additional time after imaging until statistically significant change in tumor volume versus saline control ([3]; LS174T and 22B tumor models, imaging on fifth day of treatment): 5 to 6 days
- difference in tumor volume between treatment and control groups ([3]; fifth day following the start of treatment, 1 day after three doses): no difference

Molecule: LLADTTHHRPWT [AVP]
- effect on cells (MTT) [4]: little effect
- effect on cells (MTT) [5]: little effect
- effect on cells (MTT) [6]: little effect
- concentration in tumor responding to ZD4190 therapy [7]: concentrated
- concentration in LS174T tumor [8]: is concentrated
- concentration in / binding to 4T1 tumor ([9]; listed as AVP peptide): no binding
- concentration in / binding to 4T1 tumor ([9]; listed as Bevacizumab (AVASTIN™)-responsive peptide): not concentrated
- concentration in 22B tumor [10]: is concentrated
